The values below come from PubChem BioAssay (NCI).

Holding throughout (assay): NCI anticancer screen, dose series, 48 h
Test [1] relates to A498 renal.
The subject of test [2] is BT-549 breast.
In test [3] the test system is HCT-15 colon.
For test [4], the system named is K-562 leukemia.
Test [5] has as its system OVCAR-8 ovarian.
For test [6], the system named is SK-MEL-28 melanoma.
Test [7] has as its system UACC-257 melanoma.
Test [8] deals with UACC-62 melanoma.

Molecules are shown by their SMILES. Several values for one entry are separate records, joined by “and”; a condition that tells them apart may be missing. Identical values can stand only once.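 These data come from cells grown in 96-well plates and exposed to compound for 48 hours at five concentrations. GI50 = concentration required for 50% inhibition of growth. At the TGI there is no net growth.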

Consider `COC(=O)[C@H](Cc1cnc[nH]1)NC(=O)[C@@H](NC(=O)Nc1cc(C(F)(F)F)cc(C(F)(F)F)c1)C(C)C`, for which the GI50 in test [1] was 13 µM; in test [2] it was 16.9 µM; in test [3], 18.2 µM; in test [4], 19.2 µM; in test [5] it was 16.5 µM; in test [6], 15.7 µM. Besides, the GI50 is 15.7 µM in test [7] and 13.9 µM in test [8]. In addition, the TGI in test [1] amounted to 27.3 µM; in test [2] it was 33.3 µM; in test [3] it was 36 µM; in test [4] it was 40.5 µM; in test [5], 31.6 µM; in test [6], 29.2 µM. Besides, the figures for the TGI in test [7] and in test [8] were 29.9 µM and 27.2 µM, respectively.

Turning to `CC1(C)CNc2cc(NC(=O)c3cccnc3NCc3ccncc3)ccc21`, the GI50 in test [1] was 12.5 µM; in test [2], 25.2 µM; in test [3], 22.2 µM; in test [4], 19.9 µM; in test [5], 33.3 µM; in test [6], 22.1 µM. Also, the GI50 is 28.8 µM in test [7] and 12.9 µM in test [8]. For the same compound, the TGI in test [1] was over 79.7 µM; in test [2], 98.2 µM; in test [3], over 87.7 µM; in test [4] it was over 100 µM; in test [5], over 100 µM; in test [6], over 100 µM. Besides, the TGI was determined as 98.2 µM in test [7] and 48.4 µM in test [8].

`CC(C)(C)c1ccc(Oc2ccc(N)cn2)cc1`: the GI50 in test [1] is 11.7 µM; in test [2], 11.3 µM; in test [3], 43.9 µM; in test [4], 30.1 µM; in test [5], 75.6 µM; in test [6] it was 75.9 µM. In addition, the values for the GI50 in test [7] and in test [8] were 37.8 µM and 61.3 µM, respectively. The TGI was over 100 µM in test [1]; 99.8 µM in test [2]; over 100 µM in test [3]; over 100 µM in test [4]; over 100 µM in test [5]; over 100 µM in test [6]. Further, the TGI in test [7] and in test [8] was over 100 µM each time.

For `CNC(=O)c1cc(Oc2ccc(NC(=O)Nc3ccc(Cl)c(C(F)(F)F)c3)c(F)c2)ccn1`, the GI50 in test [1] was 2.75 µM and 1.82 µM; in test [2] it was 2.56 µM and 2.67 µM; in test [3], 3 µM and 2.35 µM; in test [4] it was 1.21 µM and 1.81 µM; in test [5], 2.39 µM and 2.31 µM; in test [6], 1.57 µM and 1.3 µM. The GI50 in test [7] is 1.97 µM and 1.35 µM; in test [8], 0.98 µM. Besides, the TGI is 7.25 µM and 5.73 µM in test [1]; 8.64 µM and 9.09 µM in test [2]; > 32.9 µM and 9.96 µM in test [3]; 7.13 µM and > 10 µM in test [4]; > 20.8 µM and 8.28 µM in test [5]; 6.28 µM and 8.13 µM in test [6]. The TGI in test [7] was 6.03 µM and 5.1 µM; in test [8], 4.73 µM.

For `COc1cccc(CC(C)=C(c2ccc(OCCN3CCCCC3)cc2)c2ccc(OCCN3CCCCC3)cc2)c1`, the GI50 in test [1] was 1.75 µM; in test [2], 1.93 µM; in test [3] it was 0.992 µM; in test [4], 0.315 µM; in test [5] it was 2.3 µM; in test [6], 2.12 µM. Besides, the GI50 in test [7] is 2.14 µM; in test [8], 2.1 µM. In addition, the TGI in test [1] was 3.72 µM; in test [2], 3.82 µM; in test [3], 2.99 µM; in test [4], 0.802 µM; in test [5] it was 4.81 µM; in test [6], 4.11 µM. The TGI in test [7] stood at 4.33 µM; in test [8], 4.17 µM.

On to `COc1cc(/C=C/C(=O)/C=C/c2ccc(-n3ccnc3C)cc2)ccc1O`, for which the GI50 in test [1] is 10.4 µM; in test [2], 1.97 µM; in test [3], 2.6 µM; in test [4], 3.32 µM; in test [5], 3.52 µM; in test [6], 2.18 µM. Also, the figures for the GI50 in test [7] and in test [8] were 3.33 µM and 4.49 µM, respectively. Also, the TGI is 23.7 µM in test [1]; 4.82 µM in test [2]; 8.47 µM in test [3]; over 100 µM in test [4]; over 100 µM in test [5]; 5 µM in test [6]. The TGI worked out at 13.5 µM in test [7] and 21.3 µM in test [8].

As to `C[C@]12CC[C@H]3[C@@H](CC=C4C[C@@H](N5CCCC5)CC[C@@]43C)[C@@H]1C/C(=C\c1cccc(OCCN3CCOCC3)c1)[C@@H]2O`, the GI50 in test [1] is 3.52 µM; in test [2] it was 2.33 µM; in test [3], 2.39 µM; in test [4], 2.34 µM; in test [5] it was 3.74 µM; in test [6], 2.01 µM. In addition, the GI50 in test [7] is 2.55 µM; in test [8] it was 17.6 µM. The TGI in test [1] is 15 µM; in test [2] it was over 100 µM; in test [3], over 100 µM; in test [4], over 100 µM; in test [5] it was 21.7 µM; in test [6], 3.99 µM. The values for the TGI in test [7] and in test [8] were 6.65 µM and 33.2 µM, respectively.

On to `OC(COC(c1ccccc1)(c1ccccc1)c1ccccc1)C(O)CC1SCCS1` (stereo unspecified), for which the TGI in test [1] was 28.4 µM; in test [2] it was 44.1 µM; in test [3] it was 73.9 µM; in test [4], over 100 µM; in test [5], 57.7 µM; in test [6], 48.8 µM. In addition, the figures for the TGI in test [7] and in test [8] were 51.8 µM and 36 µM, respectively.

For `Cc1ccc(/C=N/Nc2nc(Nc3ccccc3)nc(-n3nc(C)cc3C)n2)cc1`, the GI50 in test [1] was 7.13 µM; in test [2], 4 µM; in test [3], 2.63 µM; in test [4], 3.71 µM; in test [5], 3.33 µM; in test [6], 6.12 µM. For the same compound, the figures for the GI50 in test [7] and in test [8] were 9.04 µM and 4.44 µM, respectively. In addition, the TGI in test [1] was 92.4 µM; in test [2] it was 34.1 µM; in test [3], 46.4 µM; in test [4], 42.7 µM; in test [5], 11.5 µM; in test [6], over 100 µM. For the same compound, the TGI in test [7] is 39.5 µM; in test [8], 24.2 µM.
